Measured values taken from ChEMBL document CHEMBL1129401, “Molecular electronic properties of a series of 4-quinolinecarbinolamines define antimalarial activity profile” (1996).

The compounds below were run on Plasmodium berghei (assay: In vivo antimalarial activity against Plasmodium berghei infected mice (Mus musculus) at 640 mg/kg subcutaneous single dose; NC=non-curative). Settings: not given.
Format: functional, organism-based
Design: dose 640 mg/kg

SMILES | MfI
OC(c1cc(-c2ccc(Cl)cc2)nc2c1ccc1ccccc12)C1CCCCN1 (stereo unspecified) | Noncurative dose
OC(c1ccnc2c(C(F)(F)F)cccc12)C1CCCCN1 (stereo unspecified) | Noncurative dose
OC(c1cc(C(F)(F)F)nc2c(F)cccc12)C1CCCCN1 (stereo unspecified) | Noncurative dose
OC(c1ccnc2c(Cl)cc(Cl)cc12)C1CCCCN1 (stereo unspecified) | Noncurative dose
Cc1cc(C)c2nc(CC/C=C/c3ccc(Cl)cc3)cc(C(O)C3CCCCN3)c2c1 (stereo unspecified) | Noncurative dose
Cc1cc(C(O)C2CCCCN2)c2cc(Cl)cc(Cl)c2n1 (stereo unspecified) | Noncurative dose
NC(=O)c1cc(C(O)C2CCCCN2)c2cccc(C(F)(F)F)c2n1 (stereo unspecified) | Noncurative dose
OC(c1cc(-c2ccc(Cl)cc2)nc2c(Cl)cccc12)C1CCCCN1 (stereo unspecified) | Noncurative dose
Cc1cccc2c(C(O)C3CCCCN3)cc(C(F)(F)F)nc12 (stereo unspecified) | Noncurative dose
O=C(Nc1cccc(C(F)(F)F)c1)c1cc(C(O)C2CCCCN2)c2cccc(C(F)(F)F)c2n1 (stereo unspecified) | Noncurative dose
OC(c1ccnc2c(Cl)cccc12)C1CCCCN1 (stereo unspecified) | Noncurative dose
Cc1cc(C)c2nc3c(c(C(O)C4CCCCN4)c2c1)CCC3 (stereo unspecified) | Noncurative dose
Cc1cccc2c(C(O)C3CCCCN3)cc(-c3ccccc3)nc12 (stereo unspecified) | Noncurative dose
Cc1ccc(-c2cc(C(O)C3CCCCN3)c3cccc(C)c3n2)cc1 (stereo unspecified) | Noncurative dose
Cc1cc(C)c2nc(C(F)(F)F)cc(C(O)C3CCCCN3)c2c1 (stereo unspecified) | Noncurative dose

These compounds were tested on Plasmodium berghei (assay: In vivo antimalarial activity against Plasmodium berghei infected mice (Mus musculus) at 640 mg/kg subcutaneous single dose). Settings: not given.
Format: functional

SMILES | MfI
OC(c1cc(-c2ccccc2)nc2c(C(F)(F)F)cccc12)C1CCCCN1 (stereo unspecified) | 0.11
Cc1ccc(-c2cc(C(O)C3CCCCN3)c3cccc(C(F)(F)F)c3n2)cc1 (stereo unspecified) | 0.09
Cc1cc(C)c2nc(-c3ccc(Cl)cc3)cc(C(O)C3CCCCN3)c2c1 (stereo unspecified) | 0.03
COc1ccc(-c2cc(C(O)C3CCCCN3)c3cccc(C(F)(F)F)c3n2)cc1 (stereo unspecified) | 0.07
OC(c1cc(-c2ccc(Cl)cc2)nc2c(Cl)cc(Cl)cc12)C1CCCCN1 (stereo unspecified) | 1.29
OC(c1cc(Oc2ccc(Cl)cc2)nc2c(Cl)cc(Cl)cc12)C1CCCCN1 (stereo unspecified) | 0.8
OC(c1cc(-c2ccc(Cl)cc2)nc2c(C(F)(F)F)cccc12)C1CCCCN1 (stereo unspecified) | 0.31
Cc1ccc(-c2cc(C(O)C3CCCCN3)c3cc(C)cc(C)c3n2)cc1 (stereo unspecified) | 0.1
OC(c1cc(-c2ccccc2)nc2c1ccc1ccccc12)C1CCCCN1 (stereo unspecified) | 0.1
Cc1cccc2c(C(O)C3CCCCN3)cc(-c3ccc(Cl)cc3)nc12 (stereo unspecified) | 0.07
OC(c1cc(-c2ccccc2)nc2c(Cl)cccc12)C1CCCCN1 (stereo unspecified) | 0.05
OC(c1cc(C(F)(F)F)nc2c1ccc1ccccc12)C1CCCCN1 (stereo unspecified) | 0.13
Cc1cc(C)c2nc(Nc3ccc(Cl)cc3)cc(C(O)C3CCCCN3)c2c1 (stereo unspecified) | 0.03
COc1cc(C(F)(F)F)c2nc(C(F)(F)F)cc(C(O)C3CCCCN3)c2c1 (stereo unspecified) | 0.81
Cc1cccc2c(C(O)C3CCCCN3)cc(-c3ccc(F)cc3)nc12 (stereo unspecified) | 0.05
OC(c1cc(C(F)(F)F)nc2c(Cl)cc(Cl)cc12)C1CCCCN1 (stereo unspecified) | 0.17
OC(c1cc(C(F)(F)F)nc2c(Cl)cccc12)C1CCCCN1 (stereo unspecified) | 0.03
Cc1cc(C)c2nc(Oc3ccc(Cl)cc3)cc(C(O)C3CCCCN3)c2c1 (stereo unspecified) | 0.03
OC(c1cc(-c2ccccc2)nc2c(Cl)cc(Cl)cc12)C1CCCCN1 (stereo unspecified) | 0.04
Cc1cc(C)c2nc(-c3ccc(F)cc3)cc(C(O)C3CCCCN3)c2c1 (stereo unspecified) | 0.03
OC(c1cc(C(F)(F)F)nc2c1cc(Cl)c1ccccc12)C1CCCCN1 (stereo unspecified) | 0.12
OC(c1cc(-c2cccc(C(F)(F)F)c2)nc2c(C(F)(F)F)cccc12)C1CCCCN1 (stereo unspecified) | 1.2
OC(c1cc(Oc2ccc(Cl)c(Cl)c2)nc2c(Cl)cc(Cl)cc12)C1CCCCN1 (stereo unspecified) | 0.87
COc1ccc(-c2cc(C(O)C3CCCCN3)c3cc(C)cc(C)c3n2)cc1 (stereo unspecified) | 0.03

Same assay, conditions: 640 mg/kg

SMILES | MfI
OC(c1cc(C(F)(F)F)nc2c(C(F)(F)F)cccc12)C1CCCCN1 (stereo in doubt; 1d) [MEFLOQUINE] | 0.81
OC(c1cc(C(F)(F)F)nc2c(C(F)(F)F)cccc12)C1CCCCN1 (stereo in doubt; 1a) [MEFLOQUINE] | 1
